Assays:
[1] = target: T1, FTSJ1-WDR6 (Homo sapiens, UniProt Q9UET6); assay: tRNA […]'-O-methyl transfer, UPLC-MS/MS of Gm34; format: biochemical; details: methyl donor, 100 μM SAM; co-substrate 5 μM tRNAPhe(GAA) from ftsj1 KO cells or with m1G37; 10 mM MgCl2, pH 7.5, 37°C, 2 h
T1 construct: mixture of FTSJ1 (C-terminal His6, High Five cells) and WDR6 (N-terminal GST, Sf9 cells), purified separately; binary complex; with tRNA (34-2'-O)-methyltransferase regulator WDR6
T1 sequence (Q9UET6 1-327 isoform Q9UET6-2): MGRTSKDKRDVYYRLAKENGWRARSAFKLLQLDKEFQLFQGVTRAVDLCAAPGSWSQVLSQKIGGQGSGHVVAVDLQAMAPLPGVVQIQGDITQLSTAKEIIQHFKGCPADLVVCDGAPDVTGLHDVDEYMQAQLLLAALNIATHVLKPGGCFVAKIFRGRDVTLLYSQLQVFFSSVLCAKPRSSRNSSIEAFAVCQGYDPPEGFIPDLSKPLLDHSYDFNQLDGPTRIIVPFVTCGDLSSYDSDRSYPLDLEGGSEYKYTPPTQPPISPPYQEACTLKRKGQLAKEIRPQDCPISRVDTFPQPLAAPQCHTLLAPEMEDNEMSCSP
T1 sequence (Q9NNW5 1-1121 partner): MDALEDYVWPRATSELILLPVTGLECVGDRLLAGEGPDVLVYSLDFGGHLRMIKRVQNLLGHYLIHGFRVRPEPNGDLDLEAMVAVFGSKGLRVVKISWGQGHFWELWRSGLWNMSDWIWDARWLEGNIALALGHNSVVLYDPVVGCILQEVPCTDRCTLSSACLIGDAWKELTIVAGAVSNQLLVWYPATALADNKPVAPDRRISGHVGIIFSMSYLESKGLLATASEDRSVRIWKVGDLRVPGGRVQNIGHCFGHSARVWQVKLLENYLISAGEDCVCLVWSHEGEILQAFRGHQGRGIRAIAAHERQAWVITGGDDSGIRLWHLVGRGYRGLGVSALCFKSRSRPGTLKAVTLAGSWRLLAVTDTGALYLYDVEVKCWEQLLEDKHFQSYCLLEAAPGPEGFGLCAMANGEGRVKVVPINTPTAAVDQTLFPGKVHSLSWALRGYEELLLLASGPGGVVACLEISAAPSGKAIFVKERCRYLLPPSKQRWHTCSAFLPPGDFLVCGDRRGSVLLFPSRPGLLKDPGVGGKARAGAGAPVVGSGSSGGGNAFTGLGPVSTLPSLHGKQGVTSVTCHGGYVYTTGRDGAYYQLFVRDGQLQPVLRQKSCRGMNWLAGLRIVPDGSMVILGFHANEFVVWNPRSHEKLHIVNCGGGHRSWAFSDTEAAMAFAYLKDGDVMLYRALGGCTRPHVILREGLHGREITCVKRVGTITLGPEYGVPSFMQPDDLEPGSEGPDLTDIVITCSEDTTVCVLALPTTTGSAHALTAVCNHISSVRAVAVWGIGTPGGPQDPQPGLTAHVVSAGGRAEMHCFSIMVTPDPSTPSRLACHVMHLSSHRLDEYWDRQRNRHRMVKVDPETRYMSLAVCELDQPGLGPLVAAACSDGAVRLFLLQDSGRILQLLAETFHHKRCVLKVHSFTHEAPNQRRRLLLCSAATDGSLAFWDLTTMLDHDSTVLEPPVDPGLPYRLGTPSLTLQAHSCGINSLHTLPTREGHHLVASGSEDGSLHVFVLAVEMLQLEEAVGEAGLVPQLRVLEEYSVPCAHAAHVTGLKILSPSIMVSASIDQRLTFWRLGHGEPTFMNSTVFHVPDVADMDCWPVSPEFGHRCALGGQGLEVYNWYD

[2] = target: T2, FTSJ1 (FTSJ1-His) (Homo sapiens, UniProt Q9UET6); assay: isothermal titration calorimetry (iTC200), one-site model; format: binding
T2 construct: full-length, C-terminal His6-tag kept, baculovirus/High Five insect cells; cDNA from HeLa RNA; 327 residues as printed
T2 sequence (Q9UET6 1-327 isoform Q9UET6-2): T1 sequence (Q9UET6 1-327 isoform Q9UET6-2)

With `C[S+](CC[C@H](N)C(=O)O)C[C@H]1O[C@@H](n2cnc3c(N)ncnc32)[C@H](O)[C@@H]1O` (some centres unmarked) [SAM] the “tRNA 2'-O-methyl transfer, UPLC-MS/MS of Gm34” value [1] was “robust Gm formation was detected after incubation with FTSJ1‐WDR6” and the Kd [2] was about 4 µM.

Reference: paper PMC7403668, “Intellectual disability‐associated gene ftsj1 is responsible for 2′‐O‐methylation of specific tRNAs” (EMBO Reports, 2020)
